Laboratory results published in US10189809B2, “SGC stimulators” (Ironwood Pharmaceuticals, Inc., priority 2010, dated 2019).

What was measured:
[1] = molecular target: soluble guanylate cyclase (sGC) (Homo sapiens (Human), UniProt Q02108+Q02153); experiment: sGC-HEK-cGMP assay run with SNP incubation (HEK WC assay); format: cell-based; conditions: for Emax at 10 µM: read-out: HEK WC Assay (% Emax at 10 uM/with 10 uM SNP); for Emax at 30 µM: read-out: HEK WC Assay (% Emax at 30 uM/with 10 uM SNP)
Sequence of soluble guanylate cyclase (sGC) (Q02153 whole entry): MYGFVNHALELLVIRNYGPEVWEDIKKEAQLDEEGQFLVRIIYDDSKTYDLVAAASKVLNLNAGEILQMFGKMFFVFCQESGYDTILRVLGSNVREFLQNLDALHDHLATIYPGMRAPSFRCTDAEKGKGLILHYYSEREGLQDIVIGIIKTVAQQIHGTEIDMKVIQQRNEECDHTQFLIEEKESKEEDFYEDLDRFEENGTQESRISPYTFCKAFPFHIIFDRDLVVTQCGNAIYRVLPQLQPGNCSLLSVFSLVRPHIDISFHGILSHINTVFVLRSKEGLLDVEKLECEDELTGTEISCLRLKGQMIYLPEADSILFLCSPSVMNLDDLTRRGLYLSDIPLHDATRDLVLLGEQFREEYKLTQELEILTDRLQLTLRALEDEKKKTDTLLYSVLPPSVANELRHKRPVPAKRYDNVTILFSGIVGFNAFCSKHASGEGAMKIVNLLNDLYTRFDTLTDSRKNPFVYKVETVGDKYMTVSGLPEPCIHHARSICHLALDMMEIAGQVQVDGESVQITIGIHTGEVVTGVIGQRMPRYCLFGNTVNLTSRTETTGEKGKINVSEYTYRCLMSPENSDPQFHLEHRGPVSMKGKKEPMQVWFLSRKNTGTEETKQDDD
Sequence of soluble guanylate cyclase (sGC) (Q02108 whole entry): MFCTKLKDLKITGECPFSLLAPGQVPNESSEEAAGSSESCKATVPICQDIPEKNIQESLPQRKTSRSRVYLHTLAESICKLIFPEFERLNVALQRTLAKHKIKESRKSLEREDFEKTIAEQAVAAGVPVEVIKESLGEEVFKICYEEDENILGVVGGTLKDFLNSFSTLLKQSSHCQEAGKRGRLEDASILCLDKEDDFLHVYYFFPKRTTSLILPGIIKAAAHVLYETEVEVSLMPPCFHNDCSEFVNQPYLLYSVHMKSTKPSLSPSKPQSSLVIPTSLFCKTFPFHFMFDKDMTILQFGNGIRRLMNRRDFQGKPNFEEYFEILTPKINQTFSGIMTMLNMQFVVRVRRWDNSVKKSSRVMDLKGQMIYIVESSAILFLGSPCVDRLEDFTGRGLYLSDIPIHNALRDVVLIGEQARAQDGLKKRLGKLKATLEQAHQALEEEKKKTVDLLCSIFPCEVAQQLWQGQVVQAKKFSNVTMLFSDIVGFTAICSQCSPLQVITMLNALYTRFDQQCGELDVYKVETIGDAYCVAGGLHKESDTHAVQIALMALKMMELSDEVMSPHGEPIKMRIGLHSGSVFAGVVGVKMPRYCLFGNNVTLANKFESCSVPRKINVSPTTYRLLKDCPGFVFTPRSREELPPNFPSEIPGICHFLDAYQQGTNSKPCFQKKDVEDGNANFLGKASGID
Method in brief: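 HEK293 cells with endogenous sGC were pretreated with 0.5 mM IBMX for 15 min at 37 °C, then exposed to test compound plus sodium nitroprusside for 10 min at 37 °C.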

[2] = molecular target: T1, Human soluble guanylate cyclase enzyme (hsGC) (Homo sapiens (Human), UniProt Q02108+Q02153); experiment: Purified human sGC enzyme synergy assay in the presence of 1 μM sodium nitroprusside (SNP); format: biochemical; conditions: for sGC Enzyme (fold increase at 10 μM with SNP): 10 μM compound; for sGC Enzyme (fold increase at 30 μM with SNP): 30 μM compound
T1 sequence (Q02153 whole entry): as the sequence (Q02153 whole entry) above
T1 sequence (Q02108 whole entry): as the sequence (Q02108 whole entry) above
Method: Human soluble guanylate cyclase enzyme (hsGC) obtained from Enzo Inc. (P/N: ALX-201-177) was used to evaluate the activity of test compounds. The assay reactions contained 0.1 M Tris (pH 8.0), 0.5 mg/mL BSA (pH 8.0), 2 mM DTT, 2 mM MgCl2, 300 μM GTP, 1 mM 3-isobutyl-1-methylxanthine (IBMX) and 5 ng human soluble guanylate cyclase enzyme. Test compounds in DMSO were then added (2 μL, 10 or 30 μM final concentration) and incubated (200 μL, 96-well plate format) at 37° C. for 30 minutes. The controls were carried out using 2 μL DMSO. After the 30 minute incubation, the reaction was stopped with the addition of 200 μL of cold methanol. The plate was then centrifuged at 3,200 rpm for 10 minutes at room temperature. Supernatants (200 μL) were collected and transferred to a new 96 well plate for analysis.
An 8 point cGMP (Sigma-Aldrich P/N: G6129) standard curve was prepared in assay buffer ranging from 0.156-20 μM. Samples for the cGMP standard curve were then diluted with an equal volume of methanol resulting in final cGMP concentrations of 0.078-10 μM.
The cGMP standard curve was generated using GraphPad Prism Software.
Calculations: Specific Activity was determined by the amount of cGMP formed (nmoles) per mg of sGC per min. Enzyme “fold-change” was calculated by dividing Specific Activity for test compounds by Specific Activity of DMSO controls.
Enzyme assays were performed as described above, but was done in the presence of 1 μM sodium nitroprusside (SNP).

[3] = molecular target: T1, Human soluble guanylate cyclase enzyme (hsGC); experiment: Purified human sGC enzyme activity assay; format: biochemical; conditions: for sGC Enzyme (specific activity at 10 μM) / sGC Enzyme (fold increase at 10 μM without SNP): 10 μM compound
Method in brief: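 Purified human sGC (5 ng) incubated 30 min at 37° C with compound at 10 or 30 μM final in pH 8.0 Tris with 300 μM GTP, 2 mM MgCl2, 2 mM DTT and 1 mM IBMX, then stopped with cold methanol. cGMP quantified against a standard curve. Specific activity (nmol cGMP/mg sGC/min) expressed as fold-change over DMSO control.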

SMILES	Emax at 10 µM [1]	Emax at 30 µM [1]	sGC Enzyme (fold increase at 10 μM with SNP) ([2]; with 1 μM SNP)	sGC Enzyme (fold increase at 30 μM with SNP) ([2]; with 1 μM SNP)	sGC Enzyme (specific activity at 10 μM) [3]	sGC Enzyme (fold increase at 10 μM without SNP) [3]	sGC Enzyme (specific activity at 30 μM) ([3]; 30 μM compound)	sGC Enzyme (fold increase at 30 μM without SNP) ([3]; 30 μM compound)	sGC Enzyme (fold increase at 30 μM with SNP) ([2]; with the addition of SNP)	sGC Enzyme (fold increase at 30 μM) ([3]; 30 μM compound, without the addition of SNP)
Fc1ccccc1Cn1nc(-c2ncccn2)cc1-c1ncccn1 [Compound I-13]	0 to 10%	0 to 10%	A (A = no increase to <2 fold increase)	A (A = no increase to <2 fold increase)	B (B = 50 to <100)	A (A = no increase to <2 fold increase)	C (C = 100 to <200)	A (A = no increase to <2 fold increase)		
Fc1ccccc1Cn1nc(-c2ccccn2)cc1-c1nnn[nH]1 [Compound I-43]	0 to 10%	0 to 10%	A (A = no increase to <2 fold increase)	A (A = no increase to <2 fold increase)	C (C = 100 to <200)	A (A = no increase to <2 fold increase)	C (C = 100 to <200)	A (A = no increase to <2 fold increase)		
Cc1nnc(-c2cc(-c3ccccn3)nn2Cc2ccccc2F)o1 [Compound I-46]	0 to 10%	0 to 10%	A (A = no increase to <2 fold increase)	A (A = no increase to <2 fold increase)	C (C = 100 to <200)	A (A = no increase to <2 fold increase)	D (D = 200 to <500)	A (A = no increase to <2 fold increase)		
CC(C)c1cc(-c2ccccn2)nn1Cc1ccccc1F [Compound I-47]	0 to 10%	0 to 10%	B (B = 2 to <5 fold increase)	B (B = 2 to <5 fold increase)	D (D = 200 to <500)	A (A = no increase to <2 fold increase)	D (D = 200 to <500)	B (B = 2 to <5 fold increase)		
Fc1ccccc1Cn1nc(-c2ccccn2)cc1C1CCCCC1 [Compound I-48]	0 to 10%	0 to 10%	B (B = 2 to <5 fold increase)	C (C = 5 to <10 fold increase)	D (D = 200 to <500)	B (B = 2 to <5 fold increase)	E (E = 500 to <1000)	B (B = 2 to <5 fold increase)		
Fc1ccccc1Cn1nc(-c2ccccn2)c(I)c1-c1ccccn1 [Compound I-53]	0 to 10%	0 to 10%	A (A = no increase to <2 fold increase)	A (A = no increase to <2 fold increase)		A (A = no increase to <2 fold increase)		A (A = no increase to <2 fold increase)		
N#Cc1c(-c2ccccn2)nn(Cc2ccccc2F)c1-c1ccccn1 [Compound I-54, 1-(2-fluorobenzyl)-3,5-di(pyridin-2-yl)-1H-pyrazole-4-carbonitrile]	0 to 10%	0 to 10%	A (A = no increase to <2 fold increase)	A (A = no increase to <2 fold increase)		A (A = no increase to <2 fold increase)		A (A = no increase to <2 fold increase)		
Cc1cc(-c2ccccn2)nn1Cc1ccccc1F [Compound I-55]	10 to 20%	20 to 40%	B (B = 2 to <5 fold increase)	B (B = 2 to <5 fold increase)		A (A = no increase to <2 fold increase)		B (B = 2 to <5 fold increase)		
Nc1nc(-c2cc(-c3ccon3)n(Cc3ccccc3F)n2)ncc1N1CCOCC1 [Compound I-139]									C (C = 5 to <10 fold increase)	C (C = 5 to <10 fold increase)

Now from value to compound:

Emax at 10 µM [1]	Emax at 30 µM [1]	sGC Enzyme (fold increase at 10 μM with SNP) ([2]; with 1 μM SNP)	sGC Enzyme (fold increase at 30 μM with SNP) ([2]; with 1 μM SNP)	sGC Enzyme (specific activity at 10 μM) [3]	sGC Enzyme (fold increase at 10 μM without SNP) [3]	sGC Enzyme (specific activity at 30 μM) ([3]; 30 μM compound)	sGC Enzyme (fold increase at 30 μM without SNP) ([3]; 30 μM compound)	sGC Enzyme (fold increase at 30 μM with SNP) ([2]; with the addition of SNP)	sGC Enzyme (fold increase at 30 μM) ([3]; 30 μM compound, without the addition of SNP)	SMILES
0 to 10%	0 to 10%	A (A = no increase to <2 fold increase)	A (A = no increase to <2 fold increase)	C (C = 100 to <200)	A (A = no increase to <2 fold increase)	C (C = 100 to <200)	B (B = 2 to <5 fold increase)			Cc1cccc(-c2cc(-c3ccccn3)nn2Cc2ccccc2F)c1 [Compound I-22]
0 to 10%	0 to 10%	B (B = 2 to <5 fold increase)	B (B = 2 to <5 fold increase)	C (C = 100 to <200)	B (B = 2 to <5 fold increase)	D (D = 200 to <500)	B (B = 2 to <5 fold increase)			Cc1ccc(-c2cc(-c3ccccn3)nn2Cc2ccccc2F)cc1 [Compound I-23]
0 to 10%	10 to 20%	B (B = 2 to <5 fold increase)	C (C = 5 to <10 fold increase)	C (C = 100 to <200)	A (A = no increase to <2 fold increase)	D (D = 200 to <500)	A (A = no increase to <2 fold increase)			COc1cccc(-c2cc(-c3ccccn3)nn2Cc2ccccc2F)n1 [Compound I-25, 2-(1-(2-fluorobenzyl)-3-(pyridin-2-yl)-1H-pyrazol-5-yl)-6-methoxypyridine]
10 to 20%	10 to 20%	B (B = 2 to <5 fold increase)	C (C = 5 to <10 fold increase)	D (D = 200 to <500)	B (B = 2 to <5 fold increase)	D (D = 200 to <500)	B (B = 2 to <5 fold increase)			Fc1ccccc1Cn1nc(-c2ccccn2)cc1-c1cccs1 [Compound I-35]
0 to 10%	0 to 10%	A (A = no increase to <2 fold increase)	B (B = 2 to <5 fold increase)	C (C = 100 to <200)	A (A = no increase to <2 fold increase)	C (C = 100 to <200)	A (A = no increase to <2 fold increase)			COc1ccc(-c2cc(-c3ccccn3)nn2Cc2ccccc2F)cc1 [Compound I-40]
0 to 10%	0 to 10%	A (A = no increase to <2 fold increase)	A (A = no increase to <2 fold increase)		A (A = no increase to <2 fold increase)		A (A = no increase to <2 fold increase)			Fc1ccccc1Cn1nc(-c2ccccn2)cc1-c1ccc(Br)cn1 [Compound I-51, 5-bromo-2-(1-(2-fluorobenzyl)-3-(pyridin-2-yl)-1H-pyrazol-5-yl)pyridine]
0 to 10%	0 to 10%	A (A = no increase to <2 fold increase)	A (A = no increase to <2 fold increase)		A (A = no increase to <2 fold increase)		A (A = no increase to <2 fold increase)			Fc1ccccc1Cn1nc(-c2ccc(Br)cn2)cc1-c1ccccn1 [Compound I-52, 5-bromo-2-(1-(2-fluorobenzyl)-5-(pyridin-2-yl)-1H-pyrazol-3-yl)pyridine]
